Legend:
U373 glioblastoma cells [1] = experiment: Matrigel invasion assay (Boyden chambers); type: cell-based; settings: Homo sapiens, U373 MG; cells treated 72 hours; invasion 48 hours; read-out: IC50, inhibition of glioblastoma cell invasion through Matrigel
Description: The in vitro invasiveness of human brain tumor cell lines U-373 MG and breast cancer cell lines BT-20 and MDA-MB-231 cells was assayed using a previously published method which employs Matrigel™-coated Costar 24-well transwell cell culture chambers (“Boyden chambers”) with 8.0-μm-pore polycarbonate filter inserts (Albini,et.al, 1987, Cancer Res., 47:3239-3245). The chamber filters were coated with 50 μg/ml of Matrigel™ matrix, incubated overnight at room temperature under a laminar flow hood and stored at 4° C. Matrigel™ matrix is made up of several components of the extracellular matrix (ECM), including collagen, laminin and proteo-glycans. The cancer cells were incubated with 500, 250, 125, 62.5, and 31.2 nM concentrations of the synthetic Phorboxazole compounds for 72 hours.
On the day of the experiment, the coated inserts were rehydrated with 0.5 ml serum-free DMEM containing 0.1% bovine serum albumin for 1-2 hours. The treated cells were trypsinized, washed twice with serum-free DMEM containing BSA, counted and resuspended at 1×10^5 cells/ml. A 0.5 ml cell suspension containing 5×10^4 cells in a serum-free DMEM was added to the Matrigel™-coated and rehydrated filter inserts. A volume of 750 μl of NIH fibroblast conditioned medium was placed as a chemoattractant in 24-well plates and the inserts were placed in wells and incubated at 37° C. for 48 hours.
The invasive cells that migrated to the lower side of the filter were fixed, stained with Hema-3 solutions and counted under microscope. Five to 10 random fields per filter were counted to determine the mean (±SE) values for the invasive fraction. The invasive fractions of cells treated with phorboxazole A derivatives were compared to those of DMSO treated control cells and the percent inhibition of invasiveness was determined using the formula: [formula]
Each treatment condition was evaluated in duplicate in 3 independent experiments. IC50 values were calculated by non-linear regression analysis using Graphpad Prisin Software Version 2.0 (Graphpad Software Inc., San Diego, Calif.).

U373 glioblastoma cells [2] = experiment: In vitro adhesion assay to ECM proteins, U373; type: cell-based, human; settings: laminin-, fibronectin-, and collagen-coated plates, 0.1 μM to 1 μM for 24 hours
Description: Human brain tumor cell lines U-373 MG and breast cancer cell lines BT-20 and MDA-MB-231 were obtained from American Type Culture Collection (ATCC, Rockville, Md.) and maintained in liquid culture using DMEM supplemented with 10% fetal bovine serum and antibiotics. Fibroblast conditioned medium was used as a source of chemoattractant in vitro invasion assays. Conditioned medium was prepared as described in the literature (Albini et.al., 1987, Cancer Res., 47:3239-3245).
In vitro adhesion assays were performed to (a) study the baseline adhesive properties of various breast cancer and glioblastoma cell lines and (b) evaluate the effects of phorboxazole A derivatives on the adhesive properties of breast cancer and glioblastoma cells. The plates for the adhesion assays were precoated with the extracellular matrix proteins laminin, fibronectin, or type IV collagen (each at a final concentration of 1 μg/ml in PBS) overnight at 4° C. and dried. On the day of the experiment, the wells were rehydrated and blocked with 10% bovine serum albumin in PBS for 1 hour at room temperature and used for the adhesion assays, as described below.
The effects of synthetic phorboxazole A and specific derivatives on adhesion of breast cancer and glioblastoma cells was studied. Exponentially growing cells in DMEM were incubated with phorboxazole compounds or genistein as a control at concentrations ranging from 0.1 μM to 1 μM for 24 hours in a humidified 5% CO2 atmosphere. DMSO (0.1%) was included as a vehicle control. After treatment, cells were detached from the flasks with 0.05% trypsin (Life Technologies) resuspended in DMEM, incubated at 37° C. for 2 hours to allow them to recover from the trypsinization stress and examined for their ability to adhere to plates precoated with ECM proteins.
In adhesion assays, cells were centrifuged, washed twice with serum-free DMEM, counted and resuspended in serum-free DMEM to a final concentration of 2.5×10^5 cells/ml. […] The adherent fraction was quantitated using MTT (3-[4,5-dimethylthiazol-2-yl]-2,5-diphenyltetrazolium bromide) assays. […] The absorbance of each well was measured in a microplate reader (Labsystems) at 540 nm and a reference wavelength of 690 nm.
To translate the OD540 values into the number of cells in each well, the OD540 values were compared to those on standard OD540-versus-cell number curves generated for each cell line. The adherent fractions of cells treated with phorboxazole A derivatives were compared to those of DMSO-treated control cells and the percent inhibition of adhesion was determined using the formula: [formula]
Each treatment condition was evaluated in duplicate in 3 independent experiments. The IC50 values were calculated by non-linear regression analysis. […]

leukemia NALM-6 cells = experiment: Mitochondrial transmembrane potential assay (DiIC1(5) staining); type: cell-based, human; settings: 2.5 nM, 5 nM or 10 nM, 72 hours
Description: FIG. 2 are graphs showing the effect of synthetic phorboxazole A and phorboxazole A derivatives on the mitochondrial transmembrane potentials of leukemia NALM-6 cells.
Cells were incubated with 2.5 nM, 5 nM or 10 nM of phorboxazole A, 33-O-methyl-phorboxazole A or 45,46-dehydrobromo-phorboxazole A for 72 hours, stained with DiICl (5) to assess the mitochondrial membrane potential (Δψm) and then analyzed with a cell sorter equipped with a HeNe laser.

C=C1C[C@@H]2C[C@@H]3C[C@@H](O)C[C@@H](O3)c3coc(n3)/C=C/C[C@H]3O[C@@H](/C(C)=C/c4coc(C[C@]5(O)C[C@H](OC)C[C@H]([C@H](O)/C=C(C)/C=C/[C@@H](C/C=C/Br)OC)O5)n4)[C@H](C)[C@@H](OC(=O)/C=C\C[C@@H](C1)O2)[C@H]3C [Compound 1, Phorboxazole A]
IC50 (U373 glioblastoma cells [1]): < 31.2 nM
Inhibition of cell adhesion (U373 glioblastoma cells [2]): active
Depolarized mitochondria (mitochondrial membrane potential) (leukemia NALM-6 cells): progressive increase in depolarized mitochondria
